{"source": "patent US20230130066A1", "about": "“USE OF CYCLODEXTRINS IN DISEASES AND DISORDERS INVOLVING PHOSPHOLIPID DYSREGULATION” (priority 2017, published 2023)", "key": {"NPC cells": {"tested_on": "NPC cells", "conditions": "cited from earlier work"}, "APP": {"tested_on": "APP", "conditions": "AD mouse cells; cited from earlier work"}, "α-synuclein [1]": {"molecular_target": "T1, α-synuclein (Homo sapiens, UniProt P37840)", "set-up": "expressed in transfected cells; host or cells: HeLa cells", "conditions": "HeLa cells, 20 mM, 1 hr; cited from earlier work"}, "[2]": {"tested_on": "MDA-MB-241 and ZR751 BC cells", "conditions": "cited from earlier work"}, "BBB": {"tested_on": "BBB", "conditions": "cited from earlier work"}, "Aβ": {"tested_on": "Aβ", "conditions": "rat hippocampal neurons infected with SFV carrying APP; cited from earlier work"}, "a-syn": {"molecular_target": "T2, a-syn (Homo sapiens, UniProt P37840)", "T2 construct": "expressed in transfected cells", "conditions": "transfected cells, immunoblot; cited from earlier work"}, "[3]": {"conditions": "12 mM cyclodextrin, 5 μM A2E, blue-light irradiation or 1 d in the dark; cited from earlier work"}, "α-synuclein [4]": {"molecular_target": "T1, α-synuclein", "set-up": "from tissue; host or cells: brain of hα-syn transgenic mice", "conditions": "mice; cited from earlier work"}, "[5]": {"tested_on": "H7 Lewis lung cancer cell lines", "conditions": "three H7 Lewis lung cancer cell lines; cited from earlier work"}, "[6]": {"molecular_target": "BC resistance protein (BCRP/ABCG2) (Homo sapiens, UniProt Q9UNQ0)", "sequence (Q9UNQ0 whole entry)": "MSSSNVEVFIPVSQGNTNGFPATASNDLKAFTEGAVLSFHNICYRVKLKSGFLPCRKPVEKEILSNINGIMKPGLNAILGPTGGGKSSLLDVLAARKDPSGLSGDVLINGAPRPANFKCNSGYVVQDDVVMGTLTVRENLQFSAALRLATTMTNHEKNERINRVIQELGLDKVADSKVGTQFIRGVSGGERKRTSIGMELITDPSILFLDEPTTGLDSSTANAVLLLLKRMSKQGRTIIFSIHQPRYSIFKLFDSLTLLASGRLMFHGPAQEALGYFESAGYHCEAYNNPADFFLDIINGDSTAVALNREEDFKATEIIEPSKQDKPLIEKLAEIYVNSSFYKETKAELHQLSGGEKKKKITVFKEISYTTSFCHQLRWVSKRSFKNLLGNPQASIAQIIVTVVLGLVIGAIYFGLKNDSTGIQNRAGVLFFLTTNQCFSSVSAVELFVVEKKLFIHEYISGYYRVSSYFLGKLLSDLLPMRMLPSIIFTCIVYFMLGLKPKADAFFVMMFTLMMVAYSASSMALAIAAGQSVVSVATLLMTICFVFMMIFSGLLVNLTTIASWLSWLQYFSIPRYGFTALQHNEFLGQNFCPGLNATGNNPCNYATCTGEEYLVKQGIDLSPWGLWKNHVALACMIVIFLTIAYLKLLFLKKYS", "conditions": "cited from earlier work"}, "MCF7 BC cells": {"tested_on": "MCF7 BC cells", "conditions": "cited from earlier work"}, "[7]": {"tested_on": "H7-O Lewis lung cancer cells", "conditions": "mice implanted with H7-O Lewis lung cancer cells; cited from earlier work"}, "MDA-MB-231 BC cells": {"tested_on": "MDA-MB-231 BC cells", "conditions": "independently of cholesterol; cited from earlier work"}, "[8]": {"tested_on": "primary effusion lymphoma (PEL)", "conditions": "mice; cited from earlier work"}, "BC": {"tested_on": "BC", "conditions": "in vivo; cited from earlier work"}, "[9]": {"conditions": "even in the relative absence of cholesterol; cited from earlier work"}, "[10]": {"conditions": "cited from earlier work"}, "[11]": {"tested_on": "unesterified cholesterol (UC) storage", "conditions": "3-week-old Npc1-/- mice, dorsal neocortex, filipin; cited from earlier work"}, "[12]": {"experiment": "randomized n-of-1 dose escalation study: excretion of phospholipids into urine after oral administration", "type": "in vivo, human", "conditions": "for Excretion of phospholipids into urine, adj (expected level in healthy subjects subtracted) / Excretion of phospholipids into urine, adj per g dose / Excretion of phospholipids into urine, avg / Excretion of phospholipids into urine, single measurements: within 8 h", "method": "An randomized n-of-1 dose escalation study was conducted to assess the activity of a clathrate of HP-α-CD and sodium caprate (C-10 fatty acid, capric acid, decanoic acid) in extracting phospholipids from serum into urine."}, "[13]": {"experiment": "randomized blinded n-of-1 PK/PD study: FPLC of morning urine", "type": "in vivo", "conditions": "oral intake in the evening", "text": "The substances compared were • HP-α-CD, • the HP-α-CD/sodium caprate clathrate • a mixture of the HP-α-CD clathrate with the same amount of sodium caprate clathrate, also known as C-10 fatty acid, capric acid, decanoic acid. • a mixture of the HP-α-CD clathrate with the oily suspension proposed by (Tuvia S, Pelled D, et al. (2014) Pharmaceutical Research 31:2010-21).\nSix samples per substance were taken.\nThe samples were taken in the evening before bed-time and urine samples were taken\nUnexpectedly, however, PA (675) and SM (650) are not reduced and neither are lyso-phospholipids (460-550)."}, "BCa": {"tested_on": "BCa", "experiment": "BCa mice: tumor volume by treatment", "type": "in vivo", "conditions": "Day*Treatment effect"}, "Caco-2 cells": {"tested_on": "Caco-2 cells", "conditions": "Caco-2 cells; cited from earlier work"}}, "note": "Several values for one entry are separate records, joined by “and”; a condition that tells them apart may be missing. Equal entries are not always repeated. Where two headings read alike, the source gives them in different places. Marks after values point to notes of the source that are not given here."}
{"substance": "methyl-β-cyclodextrin [MβCD]", "values": [{"measurement": "cholesterol accumulation", "setting": "NPC cells", "result": "most potent"}, {"measurement": "APPsα levels in the medium", "setting": "APP", "result": "increased"}, {"measurement": "APPsβ levels in the medium", "setting": "APP", "result": "did not change"}, {"measurement": "levels of intracellular APPsβ", "setting": "APP", "result": "decrease"}, {"measurement": "levels of α secretase cleavage products C83", "setting": "APP", "result": "increase"}, {"measurement": "co-location of α-synuclein with the cell membrane", "setting": "α-synuclein [1]", "result": "dramatically reduced"}, {"measurement": "spheroid migration and invasion", "setting": "[2]", "result": "inhibited"}, {"measurement": "toxicity on BBB in vitro", "setting": "BBB", "result": "similar"}, {"measurement": "secretion of Aβ", "setting": "Aβ", "result": "inhibits secretion"}, {"measurement": "level of a-syn in the membrane fraction and detergent-insoluble fraction", "setting": "a-syn", "result": "reduced the level of a-syn"}, {"measurement": "protection of A2E against oxidation", "setting": "[3]", "result": "protect A2E against oxidation"}, {"measurement": "accumulation of α-synuclein in neuronal cell body and synapses", "setting": "α-synuclein [4]", "result": "reduced accumulation"}, {"measurement": "invasion activity", "setting": "[5]", "result": "suppressed invasion activity"}, {"measurement": "decrease in activity of BC resistance protein (BCRP/ABCG2)", "setting": "[6]", "result": 40, "unit": "%"}, {"measurement": "endocytosis and migration", "setting": "MCF7 BC cells", "result": "inhibited"}, {"measurement": "number of lung metastases", "setting": "[7]", "result": "reduced the number of lung metastases"}, {"measurement": "internalization of exosomes containing integrins", "setting": "MDA-MB-231 BC cells", "result": "inhibited"}, {"measurement": "growth of primary effusion lymphoma (PEL)", "setting": "[8]", "result": "inhibited growth"}, {"measurement": "efficacy in a mouse model of BC", "setting": "BC", "result": "effective"}, {"measurement": "LPC or FFA mediated surfactant inhibition", "setting": "[9]", "result": "reversed"}]}
{"substance": "2-hydroxypropyl-α-cyclodextrin [HP-α-CD]", "values": [{"measurement": "Solubility in water", "setting": "[10]; Table 1", "result": ">500", "unit": "g/L"}, {"measurement": "Solubility in water", "setting": "[10]; Table 3", "result": "~500^a g/l"}, {"measurement": "UC storage in brain cells", "setting": "[11]", "result": "clearly reduced"}, {"measurement": "Excretion of phospholipids into urine, adj (expected level in healthy subjects subtracted)", "setting": "[12]; oral dose 18 g", "result": 1.05, "unit": "mM"}, {"measurement": "Excretion of phospholipids into urine, adj per g dose", "setting": "[12]; oral dose 18 g", "result": 0.06, "unit": "mM/g"}, {"measurement": "Excretion of phospholipids into urine, avg", "setting": "[12]; oral dose 18 g", "result": 3.87, "unit": "mM"}, {"measurement": "Excretion of phospholipids into urine, single measurements", "setting": "[12]; oral dose 18 g", "result": "3.8 mM and 3.5 mM and 4.3 mM"}, {"measurement": "Excretion of phospholipids into urine, adj (expected level in healthy subjects subtracted)", "setting": "[12]; oral dose 22 g", "result": 2.11, "unit": "mM"}, {"measurement": "Excretion of phospholipids into urine, adj per g dose", "setting": "[12]; oral dose 22 g", "result": 0.10, "unit": "mM/g"}, {"measurement": "Excretion of phospholipids into urine, avg", "setting": "[12]; oral dose 22 g", "result": 4.93, "unit": "mM"}, {"measurement": "Excretion of phospholipids into urine, single measurements", "setting": "[12]; oral dose 22 g", "result": "5.2 mM and 4.4 mM"}, {"measurement": "Excretion of phospholipids into urine, adj (expected level in healthy subjects subtracted)", "setting": "[12]; oral dose 26 g", "result": 4.05, "unit": "mM"}, {"measurement": "Excretion of phospholipids into urine, adj per g dose", "setting": "[12]; oral dose 26 g", "result": 0.16, "unit": "mM/g"}, {"measurement": "Excretion of phospholipids into urine, avg", "setting": "[12]; oral dose 26 g", "result": 6.87, "unit": "mM"}, {"measurement": "Excretion of phospholipids into urine, single measurements", "setting": "[12]; oral dose 26 g", "result": "7.2 mM and 6.3 mM and 7.1 mM"}, {"measurement": "Excretion of phospholipids into urine, adj (expected level in healthy subjects subtracted)", "setting": "[12]; oral dose 30 g", "result": 4.65, "unit": "mM"}, {"measurement": "Excretion of phospholipids into urine, adj per g dose", "setting": "[12]; oral dose 30 g", "result": 0.15, "unit": "mM/g"}, {"measurement": "Excretion of phospholipids into urine, avg", "setting": "[12]; oral dose 30 g", "result": 7.47, "unit": "mM"}, {"measurement": "Excretion of phospholipids into urine, single measurements", "setting": "[12]; oral dose 30 g", "result": "7.5 mM and 6.8 mM and 8.1 mM"}, {"measurement": "Excretion of phospholipids into urine, adj (expected level in healthy subjects subtracted)", "setting": "[12]; oral dose 36 g", "result": 5.75, "unit": "mM"}, {"measurement": "Excretion of phospholipids into urine, adj per g dose", "setting": "[12]; oral dose 36 g", "result": 0.16, "unit": "mM/g"}, {"measurement": "Excretion of phospholipids into urine, avg", "setting": "[12]; oral dose 36 g", "result": 8.57, "unit": "mM"}, {"measurement": "Excretion of phospholipids into urine, single measurements", "setting": "[12]; oral dose 36 g", "result": "8.2 mM and 8.8 mM and 8.7 mM"}, {"measurement": "Excretion of phospholipids into urine, adj (expected level in healthy subjects subtracted)", "setting": "[12]; oral dose 44 g", "result": 4.88, "unit": "mM"}, {"measurement": "Excretion of phospholipids into urine, adj per g dose", "setting": "[12]; oral dose 44 g", "result": 0.11, "unit": "mM/g"}, {"measurement": "Excretion of phospholipids into urine, avg", "setting": "[12]; oral dose 44 g", "result": 7.70, "unit": "mM"}, {"measurement": "Excretion of phospholipids into urine, single measurements", "setting": "[12]; oral dose 44 g", "result": "8.0 mM and 7.6 mM and 7.5 mM"}, {"measurement": "side effect observed", "setting": "[12]; oral, only at the highest (44 g) dose", "result": "softening of stool"}, {"measurement": "BBB breakdown", "setting": "BBB", "result": 2.5, "unit": "mM"}, {"measurement": "recovery of HP-α-CD from morning urine (resorption)", "setting": "[13]", "result": "not excreted"}, {"measurement": "Tumor Volume", "setting": "BCa", "result": "effective"}, {"measurement": "cytotoxicity", "setting": "Caco-2 cells", "result": "less cytotoxic than α-CD"}]}
